SMILES strings stand for the structures. Where only a bound is given, the exact number is not on record here.

We go through 22 compounds from patent publication US8309546B2, “Morpholinopurine derivatives” (Daiichi Sankyo Company, Limited, priority 2008, dated 2012).

For one experiment, the target named is PI3Kα (Homo sapiens, UniProt P42336). The experiment in a line: PI3K kinase activity inhibition assay. In kind it is biochemical. As to conditions: Kinase-Glo Plus ATP detection, read-out: IC50 against PI3K. Put shortly: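 PI3Kα (50 nM solution) was reacted with 30 μM ATP and 45 μM PIP2 solutions, each in HEPES pH 7.4 with MgCl2 and DTT, for 2 h at room temperature. Remaining ATP was measured by Kinase-Glo Plus luminescence, and inhibition was derived from ATP consumed. IC50 was taken from curve fitting of the serial dilutions.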

Experiment [1] has as its system Akt (threonine 308) phosphorylation in AN3CA tumor. The experiment is described as follows: Akt phosphorylation inhibition assay in xenograft. The format is in vivo, female nude mouse. The settings on record: Mus musculus, AN3-CA, oral, 6 hr after dosing. Summed up:
(§1)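 AN3CA human endometrial cancer cells grown as subcutaneous xenografts in female nude mice; compound dosed orally at a set concentration, tumors excised after a set time. Tumor lysates at equal protein were western blotted for p-Akt(T308) and p-S6(S235/236). Inhibition (%) = 100−100×(treated/untreated phospho signal).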

For experiment [2], the system named is S6 (serine 235 and 236) phosphorylation in AN3CA tumor. The experiment is described as follows: S6 phosphorylation inhibition assay in xenograft. The format is in vivo, female nude mouse. The settings on record: Mus musculus, AN3-CA, oral, 6 hr after dosing. Put shortly: as §1

Chain of PI3Kα (P42336 whole entry, species assumed): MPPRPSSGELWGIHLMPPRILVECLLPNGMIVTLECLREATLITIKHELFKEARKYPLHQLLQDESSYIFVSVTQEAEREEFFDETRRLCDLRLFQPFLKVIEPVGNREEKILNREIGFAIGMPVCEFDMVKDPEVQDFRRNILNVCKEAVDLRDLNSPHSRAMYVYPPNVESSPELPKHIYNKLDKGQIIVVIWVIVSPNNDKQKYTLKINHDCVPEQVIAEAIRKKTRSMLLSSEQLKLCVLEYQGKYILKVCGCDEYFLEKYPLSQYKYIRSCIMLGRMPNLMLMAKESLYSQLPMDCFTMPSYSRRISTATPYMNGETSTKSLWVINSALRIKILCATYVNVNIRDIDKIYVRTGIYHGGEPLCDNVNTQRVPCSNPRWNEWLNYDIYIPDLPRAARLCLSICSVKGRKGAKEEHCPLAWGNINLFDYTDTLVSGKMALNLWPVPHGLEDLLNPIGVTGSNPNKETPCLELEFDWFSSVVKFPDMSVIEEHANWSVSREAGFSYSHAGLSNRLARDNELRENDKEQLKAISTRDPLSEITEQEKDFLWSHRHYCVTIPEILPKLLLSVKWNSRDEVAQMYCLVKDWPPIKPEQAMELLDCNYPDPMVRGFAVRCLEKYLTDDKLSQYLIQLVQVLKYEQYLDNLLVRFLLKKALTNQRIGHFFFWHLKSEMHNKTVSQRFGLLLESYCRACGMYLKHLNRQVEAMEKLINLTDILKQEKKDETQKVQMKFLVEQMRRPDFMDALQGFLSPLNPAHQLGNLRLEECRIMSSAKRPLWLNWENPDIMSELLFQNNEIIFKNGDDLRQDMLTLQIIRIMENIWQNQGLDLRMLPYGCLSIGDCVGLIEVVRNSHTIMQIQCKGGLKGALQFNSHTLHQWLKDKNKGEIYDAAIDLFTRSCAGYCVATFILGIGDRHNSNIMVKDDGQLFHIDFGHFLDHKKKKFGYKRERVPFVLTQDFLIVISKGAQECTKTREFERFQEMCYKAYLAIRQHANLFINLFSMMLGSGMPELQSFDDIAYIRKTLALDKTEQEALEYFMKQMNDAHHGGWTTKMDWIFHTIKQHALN
Chain of PI3Kα (P27986 whole entry partner, species assumed): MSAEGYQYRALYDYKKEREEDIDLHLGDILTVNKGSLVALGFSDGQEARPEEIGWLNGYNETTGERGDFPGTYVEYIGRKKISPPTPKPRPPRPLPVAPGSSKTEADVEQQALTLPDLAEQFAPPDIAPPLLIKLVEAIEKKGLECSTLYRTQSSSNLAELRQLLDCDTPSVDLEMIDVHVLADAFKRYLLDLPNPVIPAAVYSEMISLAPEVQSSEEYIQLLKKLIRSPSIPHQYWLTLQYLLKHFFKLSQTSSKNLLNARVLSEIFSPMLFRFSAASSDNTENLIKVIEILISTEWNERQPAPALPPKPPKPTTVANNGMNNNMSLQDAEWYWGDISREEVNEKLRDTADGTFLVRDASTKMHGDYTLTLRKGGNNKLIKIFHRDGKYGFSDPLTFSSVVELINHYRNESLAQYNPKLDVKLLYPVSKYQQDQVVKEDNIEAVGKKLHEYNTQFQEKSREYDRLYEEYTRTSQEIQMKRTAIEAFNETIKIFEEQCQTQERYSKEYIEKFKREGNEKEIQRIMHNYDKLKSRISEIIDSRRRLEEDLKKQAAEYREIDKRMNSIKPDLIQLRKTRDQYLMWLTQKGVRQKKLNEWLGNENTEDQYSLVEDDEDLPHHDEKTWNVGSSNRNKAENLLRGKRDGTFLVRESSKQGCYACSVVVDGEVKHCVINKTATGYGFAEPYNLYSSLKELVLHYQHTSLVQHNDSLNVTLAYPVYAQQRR

Take `C[C@H](O)C(=O)N1CCN(c2nc3c(N4CCOCC4)nc(-c4cnc(N)nc4)nc3n2CC2CC2)CC1` [Example 88, (2S)-1-{4-[2-(2-Aminopyrimidin-5-yl)-9-(cyclopropylmethyl)-6-morpholin-4-yl-9H-purin-8-yl]piperazin-1-yl}-1-oxopropan-2-ol]: the IC50 at PI3Kα is less than 10 nM. In addition, the inhibition at 10 mg/kg in experiment [1] was greater than 60%; in experiment [2], 70 to 90%.

As for `CC(C)Cn1c(N2CCN(C(=O)CO)CC2)nc2c(N3CCOCC3)nc(-c3cnc(N)nc3)nc21` [Example 89, 2-{4-[2-(2-Aminopyrimidin-5-yl)-9-isobutyl-6-morpholin-4-yl-9H-purin-8-yl]piperazin-1-yl}-2-oxoethanol], the IC50 on PI3Kα is less than 10 nM. In addition, the inhibition at 10 mg/kg is greater than 60% in experiment [1] and 70 to 90% in experiment [2].

`CC(C)Cn1c(N2CCN(C=O)CC2)nc2c(N3CCOCC3)nc(-c3cnc(N)nc3)nc21` [Example 90, 4-[2-(2-Aminopyrimidin-5-yl)-9-isobutyl-6-morpholin-4-yl-9H-purin-8-yl]piperazine-1-carboaldehyde]: the IC50 on PI3Kα is 10 to 20 nM. Further, the inhibition at 10 mg/kg in experiment [1] is greater than 60%; in experiment [2], greater than 90%.

Consider `C[C@H](O)C(=O)N1CCN(c2nc3c(N4CCOCC4)nc(-c4cnc(N)nc4)nc3n2CC2CC2)C[C@@H]1C` [Example 92, (2S)-1-{(2S)-4-[2-(2-Aminopyrimidin-5-yl)-9-(cyclopropylmethyl)-6-morpholin-4-yl-9H-purin-8-yl]-2-methylpiperazin-1-yl}-1-oxopropan-2-ol], for which, at PI3Kα, the IC50 lay within 10 to 20 nM. Further, the values for the inhibition at 10 mg/kg in experiment [1] and in experiment [2] were greater than 60% and greater than 90%, respectively.

For the compound `CC(C)Cn1c(N2CCN(C(=O)[C@@H](C)O)CC2)nc2c(N3CCOCC3)nc(-c3cnc(N)nc3)nc21` [Example 93], the IC50 at PI3Kα is less than 10 nM. Besides, the inhibition at 10 mg/kg is greater than 60% in experiment [1] and greater than 90% in experiment [2].

For `C[C@H](O)C(=O)N1CCN(c2nc3c(N4CCOCC4)nc(-c4cnc(N)nc4)nc3n2CC2CC2)C[C@H]1C` [Example 95, (2S)-1-{(2R)-4-[2-(2-Aminopyrimidin-5-yl)-9-(cyclopropylmethyl)-6-morpholin-4-yl-9H-purin-8-yl]-2-methylpiperazin-1-yl}-1-oxopropan-2-ol], the IC50 on PI3Kα was 10 to 20 nM. For the same compound, the inhibition at 10 mg/kg in experiment [1] is greater than 60%; in experiment [2] it was 70 to 90%.

Take `CC(=O)N1CCN(c2nc3c(N4CCOCC4)nc(-c4cnc(N)nc4)nc3n2CC2CC2)C[C@@H]1C` [Example 96, 5-{8-[(3S)-4-Acetyl-3-methylpiperazin-1-yl]-9-(cyclopropylmethyl)-6-morpholin-4-yl-9H-purin-2-yl}pyrimidin-2-amine]: the IC50 at PI3Kα was less than 10 nM. Also, the figures for the inhibition at 10 mg/kg in experiment [1] and in experiment [2] were greater than 60% and greater than 90%, respectively.

On to `CC(=O)N1CCN(c2nc3c(N4CCOCC4)nc(-c4cnc(N)nc4)nc3n2CC2CC2)C[C@H]1C` [Example 97, 5-{8-[(3R)-4-Acetyl-3-methylpiperazin-1-yl]-9-(cyclopropylmethyl)-6-morpholin-4-yl-9H-purin-2-yl}pyrimidin-2-amine], for which the IC50 at PI3Kα is 10 to 20 nM. Further, the inhibition at 10 mg/kg was 30 to 60% in experiment [1] and 70 to 90% in experiment [2].

Turning to `CC(=O)N1[C@H](C)CN(c2nc3c(N4CCOCC4)nc(-c4cnc(N)nc4)nc3n2CC2CC2)C[C@@H]1C` [Example 98, 5-{8-[4-Acetyl-cis-3,5-dimethylpiperazin-1-yl]-9-(cyclopropylmethyl)-6-morpholin-4-yl-9H-purin-2-yl}pyrimidin-2-amine], the IC50 on PI3Kα was less than 10 nM. The values for the inhibition at 10 mg/kg in experiment [1] and in experiment [2] were 30 to 60% and greater than 90%, respectively.

As to `CC(C)Cn1c(N2CCN(C=O)[C@H](C)C2)nc2c(N3CCOCC3)nc(-c3cnc(N)nc3)nc21` [Example 100, (2R)-4-[2-(2-Aminopyrimidin-5-yl)-9-isobutyl-6-morpholin-4-yl-9H-purin-8-yl]-2-methylpiperazine-1-carboaldehyde], the IC50 on PI3Kα was less than 10 nM. Moreover, the inhibition at 10 mg/kg was greater than 60% in experiment [1] and greater than 90% in experiment [2].

Take `CC(=O)N1CCN(c2nc3c(N4CCOCC4)nc(-c4cnc(N)nc4)nc3n2CC(C)C)C[C@@H]1C` [Example 101, 5-{8-[(3S)-4-Acetyl-3-methylpiperazin-1-yl]-9-isobutyl-6-morpholin-4-yl-9H-purin-2-yl}pyrimidin-2-amine]: the IC50 at PI3Kα is 10 to 20 nM. In addition, the figures for the inhibition at 10 mg/kg in experiment [1] and in experiment [2] were greater than 60% and greater than 90%, respectively.

Turning to `CC(C)Cn1c(N2CCN(C=O)[C@@H](C)C2)nc2c(N3CCOCC3)nc(-c3cnc(N)nc3)nc21` [Example 102, (2S)-4-[2-(2-Aminopyrimidin-5-yl)-9-isobutyl-6-morpholin-4-yl-9H-purin-8-yl]-2-methylpiperazine-1-carboaldehyde], at PI3Kα, the IC50 was less than 10 nM. Also, the results for the inhibition at 10 mg/kg in experiment [1] and in experiment [2] were greater than 60% and greater than 90%, respectively.

For `CC(C)Cn1c(N2CCN(C(=O)[C@H](C)O)[C@H](C)C2)nc2c(N3CCOCC3)nc(-c3cnc(N)nc3)nc21` [Example 103, (2S)-1-{(2R)-4-[2-(2-Aminopyrimidin-5-yl)-9-isobutyl-6-morpholin-4-yl-9H-purin-8-yl]-2-methylpiperazin-1-yl}-1-oxopropan-2-ol], the IC50 at PI3Kα fell in the range of 10 to 20 nM. Further, the figures for the inhibition at 10 mg/kg in experiment [1] and in experiment [2] were greater than 60% and greater than 90%, respectively.

As for `CC(C)Cn1c(N2CCN(C(=O)[C@H](C)O)[C@@H](C)C2)nc2c(N3CCOCC3)nc(-c3cnc(N)nc3)nc21` [Example 104, (2S)-1-{(2S)-4-[2-(2-Aminopyrimidin-5-yl)-9-isobutyl-6-morpholin-4-yl-9H-purin-8-yl]-2-methylpiperazin-1-yl}-1-oxopropan-2-ol], the IC50 at PI3Kα lay in the range of 10 to 20 nM. The figures for the inhibition at 10 mg/kg in experiment [1] and in experiment [2] were greater than 60% and greater than 90%, respectively.

Turning to `CNc1ncc(-c2nc(N3CCOCC3)c3nc(N4CCN(S(C)(=O)=O)[C@@H](C)C4)n(CC(F)(F)F)c3n2)cn1` [Example 105, N-Methyl-5-{8-[(3S)-3-methyl-4-(methylsulfonyl)piperazin-1-yl]-6-morpholin-4-yl-9-(2,2,2-trifluoroethyl)-9H-purin-2-yl}pyrimidin-2-amine], the IC50 at PI3Kα was less than 10 nM. Moreover, the inhibition at 10 mg/kg in experiment [1] is 30 to 60%; in experiment [2], greater than 90%.

For `CNc1ncc(-c2nc(N3CCOCC3)c3nc(N4CCN(S(C)(=O)=O)[C@H](C)C4)n(CC(F)(F)F)c3n2)cn1` [Example 106, N-Methyl-5-{8-[(3R)-3-methyl-4-(methylsulfonyl)piperazin-1-yl]-6-morpholin-4-yl-9-(2,2,2-trifluoroethyl)-9H-purin-2-yl}pyrimidin-2-amine], on PI3Kα, the IC50 was less than 10 nM. Besides, the inhibition at 10 mg/kg in experiment [1] was greater than 60%; in experiment [2], greater than 90%.

For the compound `CNc1ncc(-c2nc(N3CCOCC3)c3nc(N4CCN(C(C)=O)[C@@H](C)C4)n(CC(F)(F)F)c3n2)cn1` [Example 107, 5-{8-[(3S)-4-Acetyl-3-methylpiperazin-1-yl]-6-morpholin-4-yl-9-(2,2,2-trifluoroethyl)-9H-purin-2-yl}-N-methylpyrimidin-2-amine], the IC50 on PI3Kα was less than 10 nM. Moreover, the inhibition at 10 mg/kg in experiment [1] was greater than 60%; in experiment [2] it was greater than 90%.

In the case of `CNc1ncc(-c2nc(N3CCOCC3)c3nc(N4CCN(C(C)=O)[C@H](C)C4)n(CC(F)(F)F)c3n2)cn1` [Example 108, 5-{8-[(3R)-4-Acetyl-3-methylpiperazin-1-yl]-6-morpholin-4-yl-9-(2,2,2-trifluoroethyl)-9H-purin-2-yl}-N-methylpyrimidin-2-amine], the IC50 on PI3Kα lay within 10 to 20 nM. For the same compound, the inhibition at 10 mg/kg in experiment [1] was greater than 60%; in experiment [2], greater than 90%.

With `C[C@H](O)C(=O)N1CCN(c2nc3c(N4CCOCC4)nc(-c4cnc(N)nc4)nc3n2CC(F)(F)F)C[C@@H]1C` [Example 109, (2S)-1-{(2S)-4-[2-(2-Aminopyrimidin-5-yl)-6-morpholin-4-yl-9-(2,2,2-trifluoroethyl)-9H-purin-8-yl]-2-methylpiperazin-1-yl}-1-oxopropan-2-ol], the IC50 on PI3Kα was less than 10 nM. The results for the inhibition at 10 mg/kg in experiment [1] and in experiment [2] were greater than 60% and greater than 90%, respectively.

`C[C@H](O)C(=O)N1CCN(c2nc3c(N4CCOCC4)nc(-c4cnc(N)nc4)nc3n2CC(F)(F)F)C[C@H]1C` [Example 110, (2S)-1-{(2R)-4-[2-(2-Aminopyrimidin-5-yl)-6-morpholin-4-yl-9-(2,2,2-trifluoroethyl)-9H-purin-8-yl]-2-methylpiperazin-1-yl}-1-oxopropan-2-ol]: at PI3Kα, the IC50 was less than 10 nM. Also, the values for the inhibition at 10 mg/kg in experiment [1] and in experiment [2] were greater than 60% and greater than 90%, respectively.

With `C[C@H]1CN(c2nc3c(N4CCOCC4)nc(-c4cnc(N)nc4)nc3n2CC(F)(F)F)CCN1C=O` [Example 111, (2S)-4-[2-(2-Aminopyrimidin-5-yl)-6-morpholin-4-yl-9-(2,2,2-trifluoroethyl)-9H-purin-8-yl]-2-methylpiperazine-1-carboaldehyde], the IC50 on PI3Kα is less than 10 nM. Moreover, the inhibition at 10 mg/kg in experiment [1] was greater than 60%; in experiment [2] it was greater than 90%.

For `C[C@@H]1CN(c2nc3c(N4CCOCC4)nc(-c4cnc(N)nc4)nc3n2CC(F)(F)F)CCN1C=O` [Example 112, (2R)-4-[2-(2-Aminopyrimidin-5-yl)-6-morpholin-4-yl-9-(2,2,2-trifluoroethyl)-9H-purin-8-yl]-2-methylpiperazine-1-carboaldehyde], the IC50 on PI3Kα is less than 10 nM. Besides, the results for the inhibition at 10 mg/kg in experiment [1] and in experiment [2] were greater than 60% and greater than 90%, respectively.

By IC50 is commonly meant the point on the concentration scale where inhibition reaches its midpoint. As a reminder, the inhibition is how much of the control response was suppressed. Lower therefore signals little suppression.
